Experimental data published in US20210386752A1, “Uses of Electron Transport Chain Complex I or Complex II Inhibitors in Treating Cancer, Combination Therapies, and Diagnostic Methods Related Thereto” (Emory University, priority 2020, published 2021).

Experiments:
BIM binding to BCL-2 = assay: Coimmunoprecipitation of BCL-2 and bound BIM; type: cell-based; settings: TTFA-treated KMS11 cells
Protocol: The regulation of ATF4, BIM and NOXA in MM cells that were not sensitized by TTFA treatment were investigated. Whole-cell lysates were evaluated for total protein expression. Coimmunoprecipitations was performed to examine binding of BIM with antiapoptotic BCL-2 in KMS11 and the TTFA insensitive-t(11;14) KMS21BM cells. Induction of BIM and NOXA were observed upon TTFA treatment (FIG. 5J) only in KMS11 not in the TTFA insensitive-t(11;14) KMS21BM cells.

ATF4, NOXA = assay: Immunoblot of whole cell lysates for ATF4 and NOXA; type: cell-based; settings: 100 μM TTFA, 24 h, MM cells
[1] = system: MM lines (L363 and KMS11); assay: Colony-forming unit assay in agar matrix, TTFA-venetoclax cotreatment; type: cell-based; settings: L363 and KMS11, venetoclax 0.1 μM
Protocol: (§1) Given the unique role of Complex II in directly connecting the TCA cycle to the ETC, the impact of selectively inhibiting either the SDH or SQR activities of Complex II on venetoclax sensitivity was tested. The venetoclax sensitization effects of TTFA (SQR inhibitor) or 3NPA (SDH inhibitor) were tested on eight venetoclax-resistant MM lines (FIG. 3A-3H). 3NPA is a structural analog of succinate, which binds irreversibly with SDH inhibiting FAD reduction and fumarate production while TTFA is a direct Qp site inhibitor. […] The efficacy of the TTFA-venetoclax cotreatment strategy was also tested in a colony-forming unit assay. MM lines (L363 and KMS11) were cultured in an agar matrix with single agents or the combination.

[2] = biological target: T1, succinate ubiquinone reductase (SQR) activity of Complex II (Homo sapiens, UniProt O14521+Q99643); assay: SQR activity assay in permeabilized cells; type: biochemical; settings: TTFA-treated KMS11 cells, 24 h
T1 construct: endogenous in cells; host or cells: KMS11 multiple myeloma cells, permeabilized
T1 sequence (Q99643 30-169): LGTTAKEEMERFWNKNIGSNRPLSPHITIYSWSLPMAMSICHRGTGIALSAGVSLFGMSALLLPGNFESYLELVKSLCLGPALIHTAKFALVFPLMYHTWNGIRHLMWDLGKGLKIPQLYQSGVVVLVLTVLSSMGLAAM
T1 sequence (O14521 57-159): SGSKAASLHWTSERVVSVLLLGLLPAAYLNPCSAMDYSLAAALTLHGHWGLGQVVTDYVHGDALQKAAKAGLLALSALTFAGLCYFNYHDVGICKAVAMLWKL
T1 sequence (P31040 43-664 partner): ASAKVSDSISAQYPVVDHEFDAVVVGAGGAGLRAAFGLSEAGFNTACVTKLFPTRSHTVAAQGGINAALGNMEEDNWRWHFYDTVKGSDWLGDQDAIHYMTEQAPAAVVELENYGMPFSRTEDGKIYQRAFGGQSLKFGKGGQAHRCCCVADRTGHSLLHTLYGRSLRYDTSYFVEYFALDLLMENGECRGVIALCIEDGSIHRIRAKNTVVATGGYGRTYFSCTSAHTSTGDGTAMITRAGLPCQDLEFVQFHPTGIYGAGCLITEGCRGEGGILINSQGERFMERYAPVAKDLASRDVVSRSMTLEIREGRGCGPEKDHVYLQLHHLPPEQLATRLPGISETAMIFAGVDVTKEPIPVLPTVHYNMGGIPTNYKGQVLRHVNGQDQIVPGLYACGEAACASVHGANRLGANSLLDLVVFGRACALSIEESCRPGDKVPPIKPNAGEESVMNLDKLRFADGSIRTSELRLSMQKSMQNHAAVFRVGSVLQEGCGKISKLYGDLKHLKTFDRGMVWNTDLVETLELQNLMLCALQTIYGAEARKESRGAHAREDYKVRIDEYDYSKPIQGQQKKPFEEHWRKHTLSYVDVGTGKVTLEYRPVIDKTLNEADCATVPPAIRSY
T1 sequence (P21912 29-280 partner): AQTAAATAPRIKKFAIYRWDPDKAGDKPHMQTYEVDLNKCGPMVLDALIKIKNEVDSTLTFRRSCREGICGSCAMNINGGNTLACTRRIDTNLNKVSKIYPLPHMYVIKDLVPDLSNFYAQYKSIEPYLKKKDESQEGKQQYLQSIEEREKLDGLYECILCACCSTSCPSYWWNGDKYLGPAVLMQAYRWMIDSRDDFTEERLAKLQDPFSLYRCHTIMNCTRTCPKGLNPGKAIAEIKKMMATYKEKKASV
Description: Given reduced oxygen consumption rates (OCR) in sensitive cells, the activities of mitochondrial Complex I and II were examined. Mitochondrial Complex I and II receive electrons from the electron donors NADH or FADH2 respectively, that are transferred to the terminal electron acceptor (O2) via a series of redox reactions. Complex I or NADH:Coenzyme Q:oxidoreductase is the largest multimeric respiratory complex of ETC comprised of over 40 subunits with its catalytic subunit containing the NADH binding site. Electrons from NADH are transferred to FMN and then to FeS clusters and finally to ubiquinone where ubiquinone is reduced to ubiquinol. […] Complex I activity was measured using an assay that relies on immunocapture of Complex I from freshly prepared cellular protein extracts. The NADH dehydrogenase activity of immunocaptured Complex I was determined by the oxidation of NADH and simultaneous reduction of the provided dye resulting in increase in absorbance. SDH and SQR activities were measured in live permeabilized cells, containing intact mitochondria pretreated with inhibitors of Complex I (rotenone), Complex III (antimycin) and Complex IV (sodium azide), allowing for selective measurement of SQR or SDH activity. […]
Succinate ubiquinone reductase (SQR) and succinate dehydrogenase (SDH) activity assays were performed by absorbance-based assays using different electron acceptors. […]

[3] = system: CD38+ CD45− gated MM cells from myeloma patient bone marrow aspirates; assay: Ex vivo venetoclax sensitivity of myeloma patient samples, Annexin V staining; type: cell-based, human
Protocol: CD38-PE and CD45-APC-Cy7 were used to gate myeloma cells. n=50 biological independent samples.
Bone marrow aspirate samples from 50 MM patients were treated with three doses of venetoclax (0.01, 0.1 and 0.5 μM) or TTFA (100 μM), or the combination for 24 h and cell death was assessed by AnnexinV staining. […] A venetoclax ICso <0.1 μM is characterized as a sensitive sample.
Bone marrow aspirates or peripheral blood samples from consenting myeloma patients were diluted to 25 mL with PBS and over laid on lymphocyte separation media. Following centrifugation, the collected buffy coat was washed with PBS and resuspended in culture medium. Cells subject to various treatments were stained with anti-CD38-phyocerythrin and anti-CD45-allophycocyanin-Cy7 to identify MM cells. CD138+ cells were purified using MACS CD138+ human microbeads. IC50S of venetoclax alone or in combination with TTFA/IACS-010759 in myeloma samples were calculated using nonlinear regression (curve-fit) analysis under agonist vs. normalized response with variable slope.

[4] = system: venetoclax-resistant MM lines; assay: Venetoclax sensitization of resistant MM lines by ETC inhibitor cotreatment, viability by AnnexinV/DAPI staining; type: cell-based
Protocol: Cell viability assessed by AnnexinV/DAPI staining.
as §1
To further inquire whether Complex I inhibition could also sensitize MM cells to venetoclax, a Complex I inhibitor was tested ([…]).

[5] = system: non-MM cells contained within the aspirate
Protocol: Bone marrow aspirate samples from 50 MM patients were treated with three doses of venetoclax (0.01, 0.1 and 0.5 μM) or TTFA (100 μM), or the combination for 24 h and cell death was assessed by AnnexinV staining.
The efficacy of IACS-010759 in sensitizing was tested in […] patient samples to venetoclax.

MM cell lines = assay: Spare respiratory capacity (Seahorse XFe96 stress assay); type: cell-based; settings: TTFA treated KMS11 cells
Protocol: Spare capacity in venetoclax-sensitive and venetoclax -resistant cells was determined by subtracting basal OCR from maximal OCR.

## O=C(CC(=O)C(F)(F)F)c1cccs1 [TTFA, 4,4,4-trifluoro-1-(2-thienyl)-1,3-butanedione]
BIM binding to BCL-2
  BIM binding to BCL-2: elevated BIM binding to BCL-2
ATF4, NOXA
  protein expression of ATF4, NOXA: Increased expression of ATF4, NOXA
[1]
  sensitization to venetoclax, cellular viability in colony-forming unit assay: sensitized MM lines to a lower dose of venetoclax
[2]
  SQR activity: Significant reduction in SQR activity
[3]; 100 μM TTFA plus 0.1 μM venetoclax, 24 h, 50 patient samples
  cell death with combination: significantly more cell death
[3]; 100 μM TTFA, 15 of 50 samples
  samples sensitized (venetoclax IC50 <0.1 μM): 30%
[3]; 100 μM TTFA, 31 of 50 samples
  samples with more than a 50% decrease in venetoclax IC50: 62%
[3]; 100 μM TTFA, 46 of 50 samples
  samples with increased venetoclax sensitivity (IC50 Ven+TTFA vs Ven): 92%
[3]; of ten ex vivo resistant samples, TTFA treatment
  samples with greater than 50% reduction in venetoclax IC50: seven samples
[3]; t(11;14) patient relapsed on venetoclax, TTFA treatment
  reduction in venetoclax IC50: more than tenfold reduction
[3]; ten ex vivo resistant samples with high SQR activity, TTFA treatment
  increased sensitivity to venetoclax: all ten resistant samples showed increased sensitivity
[4]; KMS21BM, TTFA at 100 μM
  sensitization to venetoclax: does not sensitize these cells to venetoclax
[4]; L363, TTFA 100 μM, 24 h
  sensitization to venetoclax: sensitizes myeloma cell line L363 to venetoclax more effectively than inhibition of SDHA with 3-NPA
[4]; eight venetoclax-resistant MM lines, 24 h
  sensitivity to venetoclax on cotreatment: increased sensitivity to venetoclax in six of the eight lines tested
[5]
  viability of non-MM cells: no to minimal impact on viability
MM cell lines
  spare respiratory capacity (SRC): concordantly reduced
